According to PubChem BioAssay AID214 (DTP/NCI, 2004):
“And” between values parts separate entries of the source, which are not always exact repeats. Identical values can stand only once. Records with an inconclusive call do not appear.

Test system: B6C3F1 mice, colon carcinoma 38 s.c., T/C
Assay: NCI In Vivo Anticancer Drug Screen. Data for tumor model Colon Carcinoma 38 (subcutaneous) in B6C3F1 mice
Conditions: endpoint: median tumor weight (est.), higher = larger tumour
Protocol: The antitumor activity of compounds was measured in mice bearing transplantable tumors. Survival or tumor size were measured and the results are expressed as the measurement made in the treated group (T) divided by the measurement made in the vehicle treated control group (C). The tumor model used in this assay is Colon Carcinoma 38 (subcutaneous) in B6C3F1 mice

[1] = dose: 12.5 mg/kg/injection, schedule: Q07DX002 (ip), vehicle: Klucel (hydroxypropylcellulose) (HPC)
[2] = dose: 25.0 mg/kg/injection, schedule: Q07DX002 (ip), vehicle: Klucel (hydroxypropylcellulose) (HPC)
[3] = dose: 50.0 mg/kg/injection, schedule: Q07DX002 (ip), vehicle: Klucel (hydroxypropylcellulose) (HPC)
[4] = dose: 100.0 mg/kg/injection, schedule: Q07DX002 (ip), vehicle: Klucel (hydroxypropylcellulose) (HPC)
[5] = dose: 200.0 mg/kg/injection, schedule: Q07DX002 (ip), vehicle: Klucel (hydroxypropylcellulose) (HPC)
[6] = dose: 50.0 mg/kg/injection, schedule: Q07DX002 (ip), vehicle: saline with Tween-80
[7] = dose: 100.0 mg/kg/injection, schedule: Q07DX002 (ip), vehicle: saline with Tween-80
[8] = dose: 200.0 mg/kg/injection, schedule: Q07DX002 (ip), vehicle: saline with Tween-80
[9] = dose: 12.5 mg/kg/injection, schedule: Q07DX002 (ip), vehicle: saline with Tween-80
[10] = dose: 25.0 mg/kg/injection, schedule: Q07DX002 (ip), vehicle: saline with Tween-80
[11] = dose: 400.0 mg/kg/injection, schedule: Q07DX002 (ip), vehicle: Klucel (hydroxypropylcellulose) (HPC)

In the case of `O=C(O)CSc1c(Cl)c(=O)oc2ccc(Cl)cc12`, the T/C [1] is reported as 73 % of control, the T/C [2] is reported as 58 % of control and the T/C [3] is reported as 57 % of control. The T/C [4] was 86 % of control and the T/C [5] was 67 % of control.

With `Cc1cn(C2CC(F)C(CO)O2)c(=O)[nH]c1=O` (stereo not given) the T/C (dose: 1800.0 mg/kg/injection, schedule: Q07DX002 (ip), vehicle: saline) was 103 % of control.

For `CN(C)/N=N/c1nc[nH]c1C(N)=O`, the T/C (dose: 90.0 mg/kg/injection, schedule: Q01DX006 (ip), vehicle: carboxymethylcellulose (CMC)) was 47 % of control.

`CCC1=C2C(=O)c3ccccc3C2=C(C)S(=O)(=O)O1` was tested, and the T/C (dose: 6.25 mg/kg/injection, schedule: Q07DX002 (ip), vehicle: saline with Tween-80) was 153 % of control.

For `CO[C@H]1C[C@](C)(O)Cc2cc3c(c(O)c21)C(=O)c1c(O)cc2c(c1C3=O)O[C@@H]1O[C@@]2(C)[C@H](O)[C@@H](N(C)C)[C@@H]1O`, the T/C (dose: 12.5 mg/kg/injection, schedule: Q07DX002 (ip), vehicle: other) was 124 % of control, the T/C (dose: 25.0 mg/kg/injection, schedule: Q07DX002 (ip), vehicle: other) was 102 % of control and the T/C (dose: 50.0 mg/kg/injection, schedule: Q07DX002 (ip), vehicle: other) was 56 % of control. For the same compound, the T/C (dose: 100.0 mg/kg/injection, schedule: Q07DX002 (ip), vehicle: other) was 19 % of control.

`O=[N+]([O-])c1ccc(N2CCOCC2)c2c1no[n+]2[O-]` was tested, and the T/C [6] was 165 % of control, the T/C [7] was 98 % of control and the T/C [8] was 103 % of control.

For `O=P1(NCCCl)OCCCN1CCCl` (stereo not given), the T/C (dose: 30.0 mg/kg/injection, schedule: Q01DX006 (ip), vehicle: saline) was 61 % of control.

`O=C(CCCN1CCC(C(O)c2ccc(F)cc2)CC1)c1ccc(F)cc1` (stereo not given) was tested, and the T/C [9] was 59 % of control, the T/C [10] was 49 % of control and the T/C [6] was 92 % of control. For the same compound, the T/C [7] was 67 % of control.

With `CCCCCCCCCCCCCCCCCC(=O)Nc1ccn(C2OC(CO)C(O)C2O)c(=O)n1` (stereo not given) the T/C [9] was 64 % of control, the T/C [10] was 40 % of control and the T/C [6] was 49 % of control. For the same compound, the T/C [7] was 23 % of control.

With `NS(=O)(=O)OCCCCCCCOS(N)(=O)=O` the T/C [9] was 214 % of control, the T/C [10] was 270 % of control and the T/C [6] was 192 % of control. The T/C [7] was 94 % of control and the T/C [8] was 104 % of control.

In the case of `NC(CCl)=NCC12CC3CC(CC(C3)C1)C2`, the T/C [1] is reported as 110 % of control and the T/C [4] is reported as 94 % of control and 108 % of control.

For `CSc1ncc2ncn(C3OC(CO)C(O)C3O)c2n1` (stereo not given), the T/C [4] was 120 % of control, the T/C [5] was 78 % of control and the T/C [11] was 120 % of control.

In the case of `CCCCCCCCCCCCCCCCCCCCCC(=O)Nc1ccn(C2OC(CO)C(O)C2O)c(=O)n1` (stereo not given), the T/C [7] is reported as 83 % of control and the T/C [8] is reported as 35 % of control.

`C#CCNC1=C(C)C(=O)C2=C(C1=O)[C@H](COC(N)=O)[C@]1(OC)[C@@H]3N[C@@H]3CN21` was tested, and the T/C (dose: 1.5 mg/kg/injection, schedule: Q07DX002 (ip), vehicle: distilled water + Tween-80) was 50 % of control, the T/C (dose: 3.0 mg/kg/injection, schedule: Q07DX002 (ip), vehicle: distilled water + Tween-80) was 60 % of control and the T/C (dose: 6.0 mg/kg/injection, schedule: Q07DX002 (ip), vehicle: distilled water + Tween-80) was 36 % of control. For the same compound, the T/C (dose: 12.0 mg/kg/injection, schedule: Q07DX002 (ip), vehicle: distilled water + Tween-80) was 9 % of control.

For `O=C1C2CC(Cl)C(SSC3CC4C(=O)N(SC(Cl)(Cl)C(Cl)Cl)C(=O)C4CC3Cl)CC2C(=O)N1SC(Cl)(Cl)C(Cl)Cl` (stereo not given), the T/C [2] was 91 % of control, the T/C [3] was 66 % of control and the T/C [4] was 74 % of control.

`Cc1c(N)nc([C@H](CC(N)=O)NC[C@H](N)C(N)=O)nc1C(=O)N[C@H](C(=O)N[C@H](C)[C@@H](O)[C@H](C)C(=O)N[C@H](C(=O)NCCc1nc(-c2nc(C(=O)NCCC[S+](C)C)cs2)cs1)[C@@H](C)O)C(OC1OC(CO)C(O)C(O)C1OC1OC(CO)C(O)C(OC(N)=O)C1O)c1cnc[nH]1` (stereo not given in full) was tested, and the T/C (dose: 16.0 mg/kg/injection, schedule: Q07DX002 (ip), vehicle: saline) was 26 % of control, the T/C (dose: 32.0 mg/kg/injection, schedule: Q07DX002 (ip), vehicle: saline) was 14 % of control and the T/C (dose: 64.0 mg/kg/injection, schedule: Q07DX002 (ip), vehicle: saline) was 35 % of control. For the same compound, the T/C (dose: 128.0 mg/kg/injection, schedule: Q07DX002 (ip), vehicle: saline) was 9 % of control.

`Cc1c(-c2ccc(-c3ccccc3F)cc2)nc2ccc(F)cc2c1C(=O)O` was tested, and the T/C (dose: 3.6 mg/kg/injection, schedule: Q01DX008 (ip), vehicle: water) was 45 % of control, the T/C (dose: 6.0 mg/kg/injection, schedule: Q01DX008 (ip), vehicle: water) was 53 % of control and the T/C (dose: 10.0 mg/kg/injection, schedule: Q01DX008 (ip), vehicle: water) was 43 % of control. The T/C (dose: 16.6 mg/kg/injection, schedule: Q01DX008 (ip), vehicle: water) was 26 % of control and the T/C (dose: 27.7 mg/kg/injection, schedule: Q01DX008 (ip), vehicle: water) was 23 % of control.

`Oc1cccc2ccccc12` was tested, and the T/C (dose: 50.0 mg/kg/injection, schedule: Q07DX002 (ip), vehicle: water) was 91 % of control, the T/C (dose: 100.0 mg/kg/injection, schedule: Q07DX002 (ip), vehicle: water) was 87 % of control and the T/C (dose: 200.0 mg/kg/injection, schedule: Q07DX002 (ip), vehicle: water) was 76 % of control.

`CC(=O)C(=O)O.CC(=O)C(=O)O.[NH-]C1CCCCC1[NH-].[Pt+2]` (stereo not given) was tested, and the T/C (dose: 6.25 mg/kg/injection, schedule: Q07DX002 (ip), vehicle: dextrose) was 83 % of control, the T/C (dose: 12.5 mg/kg/injection, schedule: Q07DX002 (ip), vehicle: dextrose) was 31 % of control and the T/C (dose: 25.0 mg/kg/injection, schedule: Q07DX002 (ip), vehicle: dextrose) was 31 % of control. The T/C (dose: 50.0 mg/kg/injection, schedule: Q07DX002 (ip), vehicle: dextrose) was 16 % of control.

`CCCCCCCCCCCCCCCCCCOCC(COP(=O)([O-])OCC[N+](C)(C)C)OC` (stereo not given) was tested, and the T/C (dose: 12.5 mg/kg/injection, schedule: Q07DX002 (ip), vehicle: saline) was 122 % of control, the T/C (dose: 25.0 mg/kg/injection, schedule: Q07DX002 (ip), vehicle: saline) was 119 % of control and the T/C (dose: 50.0 mg/kg/injection, schedule: Q07DX002 (ip), vehicle: saline) was 89 % of control. For the same compound, the T/C (dose: 100.0 mg/kg/injection, schedule: Q07DX002 (ip), vehicle: saline) was 73 % of control.

For `C=C(Cl)C(=NC(C)(C)C)Nc1ccccc1C`, the T/C [4] was 88 % of control.

In the case of `NC(=O)C1=CC2C3C=CC2(O)C(=O)OC3O1` (stereo not given), the T/C (dose: 7.5 mg/kg/injection, schedule: Q07DX002 (ip), vehicle: Klucel (hydroxypropylcellulose) (HPC)) is reported as 73 % of control, the T/C (dose: 15.0 mg/kg/injection, schedule: Q07DX002 (ip), vehicle: Klucel (hydroxypropylcellulose) (HPC)) is reported as 86 % of control and the T/C (dose: 30.0 mg/kg/injection, schedule: Q07DX002 (ip), vehicle: Klucel (hydroxypropylcellulose) (HPC)) is reported as 112 % of control.

In the case of `Cc1c2ccccc2c(C)c2c1cc(C(=O)O)c1ccccc12`, the T/C (dose: 12.5 mg/kg/injection, schedule: Q07DX002 (ip), vehicle: sodium bicarbonate) is reported as 66 % of control, the T/C (dose: 25.0 mg/kg/injection, schedule: Q07DX002 (ip), vehicle: sodium bicarbonate) is reported as 98 % of control and the T/C (dose: 50.0 mg/kg/injection, schedule: Q07DX002 (ip), vehicle: sodium bicarbonate) is reported as 74 % of control. For the same compound, the T/C (dose: 62.5 mg/kg/injection, schedule: Q07DX002 (ip), vehicle: sodium bicarbonate) was 112 % of control, the T/C (dose: 100.0 mg/kg/injection, schedule: Q07DX002 (ip), vehicle: sodium bicarbonate) was 107 % of control and the T/C (dose: 125.0 mg/kg/injection, schedule: Q07DX002 (ip), vehicle: sodium bicarbonate) was 106 % of control. The T/C (dose: 200.0 mg/kg/injection, schedule: Q07DX002 (ip), vehicle: sodium bicarbonate) was 108 % of control, the T/C (dose: 250.0 mg/kg/injection, schedule: Q07DX002 (ip), vehicle: sodium bicarbonate) was 76 % of control and the T/C (dose: 500.0 mg/kg/injection, schedule: Q07DX002 (ip), vehicle: sodium bicarbonate) was 26 % of control. The T/C (dose: 1000.0 mg/kg/injection, schedule: Q07DX002 (ip), vehicle: sodium bicarbonate) was 23 % of control.

For `Oc1cc2ccccc2c(-c2c(O)c(O)cc3ccccc23)c1O`, the T/C [8] was 70 % of control, the T/C (dose: 400.0 mg/kg/injection, schedule: Q07DX002 (ip), vehicle: saline with Tween-80) was 62 % of control and the T/C (dose: 800.0 mg/kg/injection, schedule: Q07DX002 (ip), vehicle: saline with Tween-80) was 104 % of control.

In the case of `O=C(O)c1cc(Cc2ccc(O)c(C(=O)O)c2)ccc1O` (tested in a mixture with another compound), the T/C [2] is reported as 71 % of control, the T/C [3] is reported as 78 % of control and the T/C [4] is reported as 70 % of control. For the same compound, the T/C [5] was 115 % of control and the T/C [11] was 63 % of control.
